Measurements from patent US20220008409A1, “CANCER COMBINATION THERAPY USING QUINOLINE CARBOXAMIDE DERIVATIVE” (KABUSHIKI KAISHA YAKULT HONSHA, priority 2018, published 2022).
Values belong to the compound of their own block, whether it stands above or below them.

Assays:
[1] = system: NCI-H1975; test: Combination effect by median-effect method, WST-8 assay; assay type: cell-based, Human; settings: in combination with STX-1159, 72 hours
Source text: (§1) NCI-H2228, NCI-H1975, SK-BR-3, Hep3B, MCF-7, Caov-3, A2058, K562 and SUP-B15 were purchased from American Type Culture Collection, SAS and HuH-7 were purchased from National Institutes of Biomedical Innovation, Health and Nutrition, and K1, FTC-133 and Ishikawa were purchased European Collection of Authenticated Cell Cultures. […] Fetal bovine serum (hereinafter, abbreviated as FBS) and MCDB 105 culture medium were purchased from Sigma Aldrich (Cat. Nos. 172012 and 117-500), and RMPI1640 culture medium, DMEM medium, Ham's F-12 medium, MEM medium and IMDM culture medium were purchased Thermo Fisher Scientific (Cat. Nos. A1049101, 11995-065, 11765-054, 11095-080 and 12440-053).
(§2) The agents were singly added one day after the cells were inoculated. […] The absorbance of water-soluble formazan generated by enzymatic activity of mitochondria in cells was measured at 450 nm using a microplate reader (Molecular Devices, Model: SpectraMax Plus). This was evaluated as the viable cell count to calculate a 50% cell growth inhibitory concentration (hereinafter, abbreviated as IC50). The reference dose of each agent was set based on IC50 (Table 3).
(§3) One day after the cells were inoculated, for single groups, STX-1159 and the agents were each added so as to be a final concentration which is ¼ times, ½ times, 1 time, 2 times or 4 times the reference dose, and for combination groups, STX-1159 and the agents were added so as to be a final concentration where STX-1159 and the agents combined were each ¼ times, ½ times, 1 time, 2 times or 4 times the reference dose. […] The fraction affected (hereinafter, abbreviated as fa) was calculated from the following expression:
(§4) fa=1−(viable cell count in agent exposure group)/(viable cell count in control group).
(§5) By a median-effect method using combination effect analyzing software CalcuSyn (HULINKS), the combination index (hereinafter, abbreviated as CI) was calculated from fa obtained when STX-1159 and the agents were exposed alone or in combination. Evaluation of the combination effect was based on grading by CI in Table 4. In calculation of CI, the average of the values from two or more experiments was employed.

[2] = Combination effect by median-effect method, summary over the cell lines of Example 1; assay type: cell-based; settings: in combination with STX-1159; summary of Table 5
Experimental: The fraction affected (hereinafter, abbreviated as fa) was calculated from the following expression: fa=1-(viable cell count in agent exposure group)/(viable cell count in control group). […] Evaluation of the combination effect was based on grading by CI in Table 4. In calculation of CI, the average of the values from two or more experiments was employed.

[3] = system: Caov-3; settings: in combination with STX-1159, 72 hours
Source text: as §1
(§6) The cells were inoculated on a 96-well plate to the density shown in Table 2, and were cultured under conditions of 5% CO2 and 37° C. The agents were singly added one day after the cells were inoculated. To the control group was added DMSO, so as to be a final concentration of 0.05%. Subsequently, the cells were cultured under conditions of 5% CO2 and 37° C. for the time shown in Table 2, and the number living cells was evaluated by WST-8 assay. That is, 10 μL of a WST-8 kit solution (Kishida Chemical Co., ltd, Cat. No. 260-96162) was added to each well, and the cells were cultured under conditions of 5% CO2 and 37° C. for 1 to 2 hours. The absorbance of water-soluble formazan generated by enzymatic activity of mitochondria in cells was measured at 450 nm using a microplate reader (Molecular Devices, Model: SpectraMax Plus). This was evaluated as the viable cell count to calculate a 50% cell growth inhibitory concentration (hereinafter, abbreviated as IC50).
(§7) The cells were inoculated on a 96-well plate so as to be the density shown in Table 2, and were cultured under conditions of 5% CO2 and 37° C. One day after the cells were inoculated, for single groups, STX-1159 and the agents were each added so as to be a final concentration which is ¼ times, ½ times, 1 time, 2 times or 4 times the reference dose, and for combination groups, STX-1159 and the agents were added so as to be a final concentration where STX-1159 and the agents combined were each ¼ times, ½ times, 1 time, 2 times or 4 times the reference dose. To the control group was added DMSO, so as to be a final concentration of 0.1%. Subsequently, the cells were cultured under conditions of 5% CO2 and 37° C. for the time shown in Table 2, and the number living cells was measured by WST-8 assay. The fraction affected (hereinafter, abbreviated as fa) was calculated from the following expression:
as §4, §5

[4] = system: Ishikawa; settings: in combination with STX-1159, 72 hours
Source text: as §1, §6, §7, §4, §5

[5] = system: MCF-7; settings: in combination with STX-1159, 72 hours
Source text: as §1, §6, §7, §4, §5

[6] = system: K1; test: Combination effect by median-effect method, WST-8 assay; assay type: cell-based, Human; settings: in combination with STX-1159, 72 hours
Source text: as §1, §2, §3, §4, §5

[7] = system: SAS; settings: in combination with STX-1159, 48 hours
Source text: as §1, §6, §7, §4, §5

[8] = system: FTC-133; settings: in combination with STX-1159, 72 hours
Source text: as §1, §6, §7, §4, §5

[9] = system: Hep3B; test: Combination effect by median-effect method, WST-8 assay; assay type: cell-based, Human; settings: in combination with STX-1159, 72 hours
Source text: as §1, §2, §3, §4, §5

[10] = system: HuH-7; test: as above; assay type: cell-based, Human; settings: in combination with STX-1159, 72 hours
Source text: as §1, §2, §3, §4, §5

[11] = biological target: T1, phosphorylated STAT3 (Homo sapiens, UniProt P40763); test: Western blotting in NCI-H2228 cells; assay type: cell-based; settings: 24 hours
T1 construct: endogenous in cells; host or cells: NCI-H2228
T1 sequence (P40763 whole entry): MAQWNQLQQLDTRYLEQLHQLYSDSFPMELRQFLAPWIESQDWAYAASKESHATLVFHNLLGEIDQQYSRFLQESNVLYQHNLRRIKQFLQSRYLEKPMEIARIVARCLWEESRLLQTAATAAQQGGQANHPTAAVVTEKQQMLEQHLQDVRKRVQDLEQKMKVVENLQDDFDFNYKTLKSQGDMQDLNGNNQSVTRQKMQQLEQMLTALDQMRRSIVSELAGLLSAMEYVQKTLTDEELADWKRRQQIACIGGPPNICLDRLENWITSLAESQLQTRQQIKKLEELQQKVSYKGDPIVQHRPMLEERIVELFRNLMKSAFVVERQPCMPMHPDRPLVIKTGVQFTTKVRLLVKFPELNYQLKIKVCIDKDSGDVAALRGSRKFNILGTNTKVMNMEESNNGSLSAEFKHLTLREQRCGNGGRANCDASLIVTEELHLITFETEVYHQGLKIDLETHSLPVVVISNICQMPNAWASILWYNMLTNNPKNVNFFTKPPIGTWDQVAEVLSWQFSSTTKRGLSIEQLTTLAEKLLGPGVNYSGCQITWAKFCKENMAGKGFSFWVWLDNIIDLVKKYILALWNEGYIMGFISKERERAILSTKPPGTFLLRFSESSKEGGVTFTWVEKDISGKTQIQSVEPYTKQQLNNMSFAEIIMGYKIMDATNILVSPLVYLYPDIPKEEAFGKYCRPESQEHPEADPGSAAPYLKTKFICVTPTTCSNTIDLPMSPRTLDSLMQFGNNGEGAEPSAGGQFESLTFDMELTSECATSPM

[12] = system: c-myc; test: Western blotting in NCI-H2228 cells; assay type: cell-based, Human; settings: 24 hours
[13] = system: survivin; test: Western blotting in NCI-H2228 cells; assay type: cell-based, Human; settings: agent alone, STX-1159 5 μM, 24 hours
[14] = system: NCI-H2228; test: Combination effect by median-effect method, WST-8 assay; assay type: cell-based, Human; settings: in combination with STX-1159, 72 hours
Source text: as §1, §2, §3, §4, §5

[15] = system: SK-BR-3; test: as above; assay type: cell-based, Human; settings: in combination with STX-1159, 72 hours
Source text: as §1, §6, §7, §4, §5

[16] = agent alone, STX-1159 5 μM, alectinib 0.01 or 0.1 μM
[17] = both agents in combination (STX-1159 5 μM, alectinib 0.01 or 0.1 μM) versus each single agent

Compound: C=CC(=O)Nc1cc(Nc2nccc(-c3cn(C)c4ccccc34)n2)c(OC)cc1N(C)CCN(C)C [Osimertinib, osimertinib]
CI [1]: 0.81 | Combination effect [1]: Moderate synergetic effect (0.7 < CI ≤ 0.85) | combination effect by the median-effect method [2]: synergetic effect

Compound: CO[C@H]1C[C@@H]2CC[C@@H](C)[C@@](O)(O2)C(=O)C(=O)N2CCCC[C@H]2C(=O)O[C@H]([C@H](C)C[C@@H]2CC[C@@H](OCCO)[C@H](OC)C2)CC(=O)[C@H](C)/C=C(\C)[C@@H](O)[C@@H](OC)C(=O)[C@H](C)C[C@H](C)/C=C/C=C/C=C/1C [Everolimus, everolimus]
combination effect by the median-effect method [2]: synergetic effect | CI [3]: 0.90 | Combination effect [3]: Light synergetic effect (0.85 < CI ≤ 0.9) | CI [4]: 0.89 | Combination effect [4]: Light synergetic effect (0.85 < CI ≤ 0.9) | CI [5]: 0.73 | Combination effect [5]: Moderate synergetic effect (0.7 < CI ≤ 0.85)

Compound: CNC(=O)c1cc(Oc2ccc(NC(=O)Nc3ccc(Cl)c(C(F)(F)F)c3)cc2)ccn1 [Sorafenib]
CI [6]: 0.77 | Combination effect [6]: Moderate synergetic effect (0.7 < CI ≤ 0.85) | combination effect by the median-effect method [2]: synergetic effect | CI [7]: 0.56 | Combination effect [7]: Synergetic effect (0.3 < CI ≤ 0.7) | CI [8]: 0.85 | Combination effect [8]: Light synergetic effect (0.85 < CI ≤ 0.9)

Compound: COc1cc2nccc(Oc3ccc(NC(=O)NC4CC4)c(Cl)c3)c2cc1C(N)=O [Lenvatinib, lenvatinib]
CI [9]: 0.75 | Combination effect [9]: Moderate synergetic effect (0.7 < CI ≤ 0.85) | CI [10]: 0.85 | Combination effect [10]: Moderate synergetic effect (0.7 < CI ≤ 0.85) | combination effect by the median-effect method [2]: synergetic effect

Compound: O=C(Nc1nnc(-c2ccco2)o1)c1cc(-c2ccccc2)nc2ccc(OC(F)(F)F)cc12 [STX-1159, N-[5-(2-furyl)-1,3,4-oxadiazol-2-yl]-2-phenyl-6-tri fluoromethoxy-4-quinoline carboxamide]
amount of phosphorylated STAT3 [11, 16]: reduced | amount of c-myc [12, 16]: reduced | amount of survivin [13]: reduced

amount of phosphorylated STAT3 [11, 16]: reduced | amount of phosphorylated STAT3 [11, 17]: more reduced
Compound: CCc1cc2c(cc1N1CCC(N3CCOCC3)CC1)C(C)(C)c1[nH]c3cc(C#N)ccc3c1C2=O [Alectinib]
CI [14]: 0.57 | Combination effect [14]: Synergetic effect (0.3 < CI ≤ 0.7) | combination effect by the median-effect method [2]: synergetic effect | amount of c-myc [12, 16]: reduced | amount of c-myc [12, 17]: more reduced

Compound: CS(=O)(=O)CCNCc1ccc(-c2ccc3ncnc(Nc4ccc(OCc5cccc(F)c5)c(Cl)c4)c3c2)o1 [Lapatinib, lapatinib]
combination effect by the median-effect method [2]: synergetic effect | CI [15]: 0.88 | Combination effect [15]: Light synergetic effect (0.85 < CI ≤ 0.9)
